Test results taken from patent US8420657B2 (Novartis AG, priority 2008, dated 2013).
pIC50: −log10 of the molar value. Where two headings read alike, the source gives them in different places.

Assays:
[1] = target: T1, GST-JAK2(808-1132) (Homo sapiens, UniProt O60674); assay: JAK2 kinase assay (Caliper mobility shift, LabChip 3000); type: biochemical
T1 construct: GST-JAK2(808-1132); purchased Invitrogen (Carlsbad, USA) #4288
In short: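 Eight-point compound series (final 10–0.003 μM) tested on purchased GST-JAK2 kinase domain (808-1132). Peptide FITC-JAK3tide plus ATP reacted 60 min, 30 °C, then quenched with EDTA; turnover from charge-based separation of substrate and product.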

[2] = target: T2, ALK (Homo sapiens, UniProt Q9UM73); assay: ALK LanthaScreen TR-FRET kinase phosphorylation assay; type: biochemical; details: recombinant kinase domain
T2 construct: using the recombinant domains of cMet, cKit, ALK and PDGFRalpha kinases
Protocol: (§1) The compounds are assayed in an antibody based kinase phosphorylation assay using the recombinant domains of cMet, cKit, ALK and PDGFRalpha kinases and a generic phospho-tyrosine peptide substrate. LanthaScreen™ is the detection of Time-Resolved Fluorescence Resonance Energy Transfer (TR-FRET) using lanthanide chelates to measure interactions between various binding partners. In a TR-FRET kinase assay, a long-lifetime lanthanide donor species is conjugated to an antibody that specifically binds to a phosphorylated product of a kinase reaction that is labeled with a suitable acceptor fluorophore. This antibody-mediated interaction brings the lanthanide donor and the acceptor into proximity such that resonance energy transfer can take place, resulting in a detectible increase in FRET. The LanthaScreen is run at ambient temperature and terminated by the addition of stop solution, followed by Tb-labeled P-20 antibody. After incubating in the dark, the plates are transferred to a fluorescence reader for counting. The effect of compound on the enzymatic activity is in all assays obtained from the linear progress curves and determined from one reading (end point measurement).

[3] = target: T3, cKit (Homo sapiens, UniProt P10721); assay: cKit LanthaScreen TR-FRET kinase phosphorylation assay; type: biochemical; details: recombinant kinase domain
T3 construct: using the recombinant domains of cMet, cKit, ALK and PDGFRalpha kinases
Protocol: as §1

[4] = target: T4, PDGFRalpha (Homo sapiens, UniProt P16234); assay: PDGFRalpha LanthaScreen TR-FRET kinase phosphorylation assay; type: biochemical; details: recombinant kinase domain, read-out: PDGFRa/IC50
T4 construct: using the recombinant domains of cMet, cKit, ALK and PDGFRalpha kinases
Protocol: as §1

[5] = target: T5, cMet (Homo sapiens, UniProt P08581); assay: cMet LanthaScreen TR-FRET kinase phosphorylation assay; type: biochemical; details: recombinant kinase domain
T5 construct: using the recombinant domains of cMet, cKit, ALK and PDGFRalpha kinases
Protocol: as §1

[6] = tested on: JAK2-dependent nuclear translocation of STAT5-GFP in U-2 OS osteosarcoma cells; assay: STAT5 nuclear translocation assay (Cellomics), rhEpo stimulated U-2 OS STAT5-GFP cells; type: cell-based; details: STAT5 translocation pathway
In short: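 U-2 OS cells stably expressing STAT5a-GFP and EpoR pre-treated with compound (final 10 μM to 0.003 μM, 0.1% DMSO) for 30 min at 37° C., then stimulated 1 h with 5 U/ml rhEpo. Nuclear-cytoplasmic GFP differential quantified by automated imaging (≥1000 cells/well, Hoechst nuclear mask). IC50 from % translocation normalized to untreated and DMSO-stimulated controls.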

[7] = tested on: JAK1/JAK2-dependent nuclear translocation of STAT1-GFP in HT1080 fibrosarcoma cells; assay: STAT1 nuclear translocation assay (Cellomics), IFN-γ stimulated HT1080 STAT1-GFP cells; type: cell-based; details: Homo sapiens, HT-1080, STAT1 translocation pathway
In short: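 IC50 derived from percent nuclear STAT1-GFP translocation, computed from nuclear minus cytoplasmic GFP intensity against untreated baseline and DMSO-stimulated control. Stable HT1080 STAT1-GFP cells received compound (0.003–10 μM, 0.1% DMSO) 30 min ahead of a 2 h 100 ng/ml IFN-γ stimulus, then fixation and Hoechst nuclear masking.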

T4 sequence (P16234 593-954 limits assumed, species assumed): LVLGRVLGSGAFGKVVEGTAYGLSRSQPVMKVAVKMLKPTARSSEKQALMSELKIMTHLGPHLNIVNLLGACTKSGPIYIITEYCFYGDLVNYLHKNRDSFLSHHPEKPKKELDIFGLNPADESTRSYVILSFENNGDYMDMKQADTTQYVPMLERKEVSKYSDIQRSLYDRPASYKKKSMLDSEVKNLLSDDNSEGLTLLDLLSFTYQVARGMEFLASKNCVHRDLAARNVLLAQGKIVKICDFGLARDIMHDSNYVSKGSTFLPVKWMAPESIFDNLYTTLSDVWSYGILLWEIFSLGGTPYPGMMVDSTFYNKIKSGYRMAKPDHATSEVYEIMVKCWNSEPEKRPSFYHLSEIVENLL
T1 sequence (O60674 808-1132): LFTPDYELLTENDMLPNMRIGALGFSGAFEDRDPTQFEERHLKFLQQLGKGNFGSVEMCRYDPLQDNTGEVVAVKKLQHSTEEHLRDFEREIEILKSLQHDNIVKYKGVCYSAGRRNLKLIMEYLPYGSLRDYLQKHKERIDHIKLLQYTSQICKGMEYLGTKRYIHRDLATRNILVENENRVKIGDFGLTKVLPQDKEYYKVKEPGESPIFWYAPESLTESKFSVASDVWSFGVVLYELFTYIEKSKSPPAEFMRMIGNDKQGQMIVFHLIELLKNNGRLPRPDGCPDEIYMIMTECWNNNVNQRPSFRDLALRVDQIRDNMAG
T2 sequence (Q9UM73 1116-1392 limits assumed, species assumed): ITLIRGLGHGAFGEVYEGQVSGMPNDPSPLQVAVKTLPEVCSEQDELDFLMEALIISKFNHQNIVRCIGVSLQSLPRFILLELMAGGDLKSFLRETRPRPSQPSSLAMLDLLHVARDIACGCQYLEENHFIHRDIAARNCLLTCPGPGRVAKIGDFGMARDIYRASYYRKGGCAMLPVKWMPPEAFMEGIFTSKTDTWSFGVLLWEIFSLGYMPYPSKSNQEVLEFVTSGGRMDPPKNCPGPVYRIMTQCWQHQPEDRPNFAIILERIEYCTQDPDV
T5 sequence (P08581 1078-1345 limits assumed): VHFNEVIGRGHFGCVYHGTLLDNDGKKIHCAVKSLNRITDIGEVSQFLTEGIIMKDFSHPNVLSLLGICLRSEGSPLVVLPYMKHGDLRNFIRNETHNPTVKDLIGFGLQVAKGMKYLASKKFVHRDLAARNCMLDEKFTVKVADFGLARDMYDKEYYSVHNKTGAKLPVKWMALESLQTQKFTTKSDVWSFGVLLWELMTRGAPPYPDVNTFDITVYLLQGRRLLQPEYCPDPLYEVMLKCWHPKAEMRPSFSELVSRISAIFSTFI
T3 sequence (P10721 589-937 limits assumed): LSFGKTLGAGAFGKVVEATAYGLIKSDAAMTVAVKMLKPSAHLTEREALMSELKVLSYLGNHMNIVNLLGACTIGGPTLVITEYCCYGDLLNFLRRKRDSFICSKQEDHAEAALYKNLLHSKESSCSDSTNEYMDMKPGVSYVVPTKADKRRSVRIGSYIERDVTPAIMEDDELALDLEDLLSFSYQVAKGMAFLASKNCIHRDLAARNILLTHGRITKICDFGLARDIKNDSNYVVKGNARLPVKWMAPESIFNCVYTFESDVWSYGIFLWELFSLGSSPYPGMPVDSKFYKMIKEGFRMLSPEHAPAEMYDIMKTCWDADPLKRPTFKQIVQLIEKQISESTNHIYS

Molecule | pIC50 [1] | pIC50 ([1]; Table 3) | pIC50 [2] | pIC50 [3] | pIC50 [4] | pIC50 [5] | pIC50 ([6]; Homo sapiens, U2OS) | pIC50 [7] | pIC50 [6]
N#Cc1ccc(Nc2ncc3ccn(-c4ccc(C(=O)N5CCOCC5)cc4)c3n2)cn1 [Example 235, 5-{7-[4-(Morpholine-4-carbonyl)-phenyl]-7H-pyrrolo[2,3-d]pyrimidin-2-ylamino}-pyridine-2-carbonitrile] | 7.25 | 7.25 | < 5.00 | < 5.00 | < 5.00 | < 5.00 |  |  | 
CN1CCN(c2ccc(Nc3ncc4ccn(-c5ccc(C#N)cc5)c4n3)cn2)CC1 [Example 278, 4-{2-[6-(4-Methyl-piperazin-1-yl)-pyridin-3-ylamino]-pyrrolo[2,3-d]pyrimidin-7-yl}-benzonitrile] | 7.96 | 7.96 | < 5.00 | 5.87 | 5.58 | 5.85 |  |  | 
C[C@@H]1CN(Cc2c(F)cc(-n3ccc4cnc(Nc5ccc(N6CCN(C)CC6)nc5)nc43)cc2F)C[C@H](C)O1 [Example 447, {7-[4-(cis-2,6-dimethyl-morpholin-4-ylmethyl)-3,5-difluoro-phenyl]-7H-pyrrolo[2,3-d]pyrimidin-2-yl}-[6-(4-methyl-piperazin-1-yl)-pyridin-3-yl]-amine] | 8.02 |  |  |  |  |  | 7.93 | 6.98 | 
Fc1cc(-n2ccc3cnc(Nc4ccc(OCCN5CCOCC5)nc4)nc32)cc(F)c1CN1CCOCC1 [Example 513, [7-(3,5-Difluoro-4-morpholin-4-ylmethyl-phenyl)-7H-pyrrolo[2,3-d]pyrimidin-2-yl]-[6-(2-morpholin-4-yl-ethoxy)-pyridin-3-yl]-amine] | 8.34 |  |  |  |  |  | 6.94 |  | 
Fc1cc(-n2ccc3cnc(Nc4ccc(OC5CCOCC5)nc4)nc32)cc(F)c1CN1CCOCC1 [Example 515, [7-(3,5-Difluoro-4-morpholin-4-ylmethyl-phenyl)-7H-pyrrolo[2,3-d]pyrimidin-2-yl]-[6-(tetrahydro-pyran-4-yloxy)-pyridin-3-yl]-amine] | ≥ 8.52 |  |  |  |  |  | 7.27 |  | 
COCCOc1ccc(Nc2ncc3ccn(-c4cc(F)c(CN5CCOCC5)c(F)c4)c3n2)cn1 [Example 516, [7-(3,5-Difluoro-4-morpholin-4-ylmethyl-phenyl)-7H-pyrrolo[2,3-d]pyrimidin-2-yl]-[6-(2-methoxy-ethoxy)-pyridin-3-yl]-amine] | 8.19 |  |  |  |  |  | 6.92 |  | 
Fc1cc(-n2ccc3cnc(Nc4ccc(OCC5CCOCC5)nc4)nc32)cc(F)c1CN1CCOCC1 [Example 517, [7-(3,5-Difluoro-4-morpholin-4-ylmethyl-phenyl)-7H-pyrrolo[2,3-d]pyrimidin-2-yl]-[6-(tetrahydro-pyran-4-ylmethoxy)-pyridin-3-yl]-amine] | ≥ 8.52 |  |  |  |  |  | 7.16 |  | 
OCCOc1ccc(Nc2ncc3ccn(-c4cc(F)c(CN5CCOCC5)c(F)c4)c3n2)cn1 [Example 518, 2-{5-[7-(3,5-Difluoro-4-morpholin-4-ylmethyl-phenyl)-7H-pyrrolo[2,3-d]pyrimidin-2-ylamino]-pyridin-2-yloxy}-ethanol] | ≥ 8.52 |  |  |  |  |  | 7.40 |  | 
Fc1cc(-n2ccc3cnc(Nc4ccc([C@H]5COCCN5CCOCc5ccccc5)cc4)nc32)cc(F)c1CN1CCOCC1 [Example 520, {4-[(S)-4-(2-Benzyloxy-ethyl)-morpholin-3-yl]-phenyl}-[7-(3,5-difluoro-4-morpholin-4-ylmethyl-phenyl)-7H-pyrrolo[2,3-d]pyrimidin-2-yl]-amine] | 7.24 |  |  |  |  |  | 6.27 |  | 
OCCN1CCOC[C@@H]1c1ccc(Nc2ncc3ccn(-c4cc(F)c(CN5CCOCC5)c(F)c4)c3n2)cc1 [Example 521, 2-((S)-3-{4-[7-(3,5-difluoro-4-morpholin-4-ylmethyl-phenyl)-7H-pyrrolo[2,3-d]pyrimidin-2-ylamino]-phenyl}-morpholin-4-yl)-ethanol] | ≥ 8.52 | > 8.52 | < 5.00 | 5.54 | 5.55 | 5.46 |  |  | 
[6-Azetidin-3-yloxy)-pyridin-3-yl]-[7-(3,5-difluoro-4-morpholin-4-ylmethyl-phenyl)-7H-pyrrolo[2,3-d]pyrimidin-2-yl]-amine [Example 514] | 7.60 |  |  |  |  |  |  |  | 5.88
